Reference: patent US20230167084A1, “TETRAHYDROISOQUINOLINE COMPOUNDS AS NRF2 ACTIVATORS” (C4X Discovery Limited, priority 2020, published 2023)

What was measured:
[1] = tested on: NRF2 mediated gene NAD(P)H:quinone acceptor oxidoreductase 1 (NQO1) in BEAS-2B cells; test: Beas2B NQO1 mRNA Cell Based Assay; conditions: Homo sapiens, NQO1 mRNA increase compared to vehicle (0.1% DMSO), 24 h
Description: The up regulation of the NRF2 mediated gene NAD(P)H:quinone acceptor oxidoreductase 1 (NQO1) was measured using the following assay method: BEAS-2B cells (ATCC CRL-9609) were plated in 96-well clear plates at 20,000 cells/well in 75 μL of cell culture media and incubated overnight (37° C., 5% CO2). On day 2, 25 μL of compound or controls were added to the cells for 24 h. On day 3, the medium was aspirated from the plate and the Cells-to-CT™ 1-Step TaqMan® Kit (Ambion A25603) was used to perform expression analysis directly from cultured cells without RNA purification according to the manufacturer's instructions.
Briefly, cells were washed with ice cold PBS and 22.5 μL of room-temperature DNase/Lysis solution was added to the cells and incubated at room temperature for 5 minutes. To stop the reaction, 2.25 μL of stop solution was added to the cell lysate. The samples were diluted 1:5 using nuclease free water and 2.5 μL transferred into the PCR plate. Real-time PCR was performed using the C-1000 Thermal Cycler (Bio-Rad) using human beta actin as the internal control. The cDNA was amplified with a specific primer for NQO1 using the 1-step RT-PCR master mix (Ambion Cells-to-CT™ 1-Step TaqMan® Kit A25603). The primers/probes sets that were used for amplification of cDNA were obtained from TaqMan Gene Expression Assays (Applied Biosystems). The comparative CT (ΔΔCT) relative quantification method was used to calculate the relative mRNA level of the target gene NQO1 as described in the Applied Biosystems Chemistry Guide. The data are expressed as an increase in target gene mRNA compared to vehicle (0.1% DMSO) control and the EC50 values were determined by fitting the data to a four parameter logistic fit using XLfit or XE Runner within ActivityBase.

[2] = molecular target: T1, human KEAP1 (N-term, residues 321-609) (Homo sapiens, UniProt Q14145); test: KEAP1 Kelch Fluorescence Polarization (FP) Assay; format: binding; conditions: inhibition of Kelch domain-NRF2 interaction; 2 nM FITC-labelled NRF2 peptide, 25 nM KEAP1, 1 h at room temperature; compounds below 10 nM cannot be differentiated
T1 construct: human KEAP1 (N-term, residues 321-609) enzyme
Description: Inhibition of the Kelch domain-NRF2 interaction was determined using a fluorescence polarization-based competition assay in a black 384-well microplate. Compounds were tested at a starting concentration of 10 μM serially diluted 1:3 to generate a 12-point dose response curve on the Biomek FX robot. Each well contained 2 nM FITC-labelled NRF2 peptide (FITC-LDEETGEFL-NH2) and 25 nM human KEAP1 (N-term, residues 321-609) enzyme in a final volume of 20 μL of assay buffer (50 mM Tris-HCl pH 8.0, 100 mM NaCl, 5 mM MgCl2, 0.005% Tween-20, 0.005% BSA, 0.5% DMSO) in the presence of varying concentrations of test compound. Unlabelled peptide (LDEETGEFL-NH2) at 50 μM (negative control) and 0.5% DMSO (positive control) was used to determine the assay window.
After 1 h at room temperature, fluorescence polarization (excitation 470 nm/emission 530 nm) was measured using an Envision plate reader. IC50 values were determined by fitting the data to a four parameter logistic fit using XLfit or XE Runner within ActivityBase. The assay limit is such that compounds below 10 nM cannot be differentiated.

T1 sequence (Q14145 321-609): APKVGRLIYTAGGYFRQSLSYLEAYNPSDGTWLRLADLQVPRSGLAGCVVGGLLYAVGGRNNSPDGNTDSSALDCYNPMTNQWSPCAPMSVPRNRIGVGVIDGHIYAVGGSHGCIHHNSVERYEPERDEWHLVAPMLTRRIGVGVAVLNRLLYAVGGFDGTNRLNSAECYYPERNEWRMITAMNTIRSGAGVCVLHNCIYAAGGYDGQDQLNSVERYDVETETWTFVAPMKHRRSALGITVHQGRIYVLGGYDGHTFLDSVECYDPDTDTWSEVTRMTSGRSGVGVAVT

| SMILES | IC50 [2] | EC50 [1] |
| --- | --- | --- |
| Cn1nnc(COc2c(F)cc(Cl)c3c2[C@@H](CN2CC4(CC4)CC2=O)N(C(=O)[C@@H]2CCCC[C@]2(C)c2nnn[nH]2)CC3)c1C(F)F [Example 1, 5-(((S)-5-chloro-8-((5-(difluoromethyl)-1-methyl-1H-1,2,3-triazol-4-yl)methoxy)-7-fluoro-2-((1R,2S)-2-methyl-2-(1H-tetrazol-5-yl)cyclohexane-1-carbonyl)-1,2,3,4-tetrahydroisoquinolin-1-yl)methyl)-5-azaspiro[2.4]heptan-6-one] | 4.8 nM | 6.8 nM |
| C[C@]1(C(=O)O)CCC[C@H]1C(=O)N1CCc2c(Cl)cc(F)c(OCc3nnn4c3CCCC4)c2[C@H]1CN1CC2(CC2)CC1=O [Example 4, (1S,2R)-2-((S)-5-chloro-7-fluoro-1-((6-oxo-5-azaspiro[2.4]heptan-5-yl)methyl)-8-((4,5,6,7-tetrahydro-[1,2,3]triazolo[1,5-a]pyridin-3-yl)methoxy)-1,2,3,4-tetrahydroisoquinoline-2-carbonyl)-1-methylcyclopentane-1-carboxylic acid] | 5 nM | 0.3 nM |
| Cn1cc(COc2c(F)cc(Cl)c3c2[C@@H](CN2CC4(CC4)CC2=O)N(C(=O)[C@@H]2CCCC[C@]2(C)C(=O)O)CC3)nn1 [Example 6, (1S,2R)-2-((S)-5-chloro-7-fluoro-8-((1-methyl-1H-1,2,3-triazol-4-yl)methoxy)-1-((6-oxo-5-azaspiro[2.4]heptan-5-yl)methyl)-1,2,3,4-tetrahydroisoquinoline-2-carbonyl)-1-methylcyclohexane-1-carboxylic acid] | 5 nM | 1 nM |

More lines, main results first:

| IC50 [2] | SMILES | EC50 [1] |
| --- | --- | --- |
| 5.4 nM | Cn1nnc(COc2c(F)cc(Cl)c3c2[C@@H](CN2CCOCC2=O)N(C(=O)[C@@H]2CCCC[C@]2(C)C(=O)O)CC3)c1C(F)F [Example 2, (1S,2R)-2-((S)-5-chloro-8-((5-(difluoromethyl)-1-methyl-1H-1,2,3-triazol-4-yl)methoxy)-7-fluoro-1-((3-oxomorpholino)methyl)-1,2,3,4-tetrahydroisoquinoline-2-carbonyl)-1-methylcyclohexane-1-carboxylic acid] | 1.3 nM |
| 4.4 nM | C[C@@H]1CC(=O)N(C[C@@H]2c3c(c(Cl)cc(F)c3OCc3nnn(C)c3C(F)F)CCN2C(=O)[C@@H]2CCCC[C@]2(C)C(=O)O)C1 [Example 3, (1S,2R)-2-((S)-5-chloro-8-((5-(difluoromethyl)-1-methyl-1H-1,2,3-triazol-4-yl)methoxy)-7-fluoro-1-(((R)-4-methyl-2-oxopyrrolidin-1-yl)methyl)-1,2,3,4-tetrahydroisoquinoline-2-carbonyl)-1-methylcyclohexane-1-carboxylic acid] | 2.1 nM |
| 4.9 nM | Cc1nnc(COc2c(F)cc(Cl)c3c2[C@@H](CN2CC4(CC4)CC2=O)N(C(=O)[C@@H]2CCCC[C@]2(C)C(=O)O)CC3)n1C [Example 5, (1S,2R)-2-((S)-5-chloro-8-((4,5-dimethyl-4H-1,2,4-triazol-3-yl)methoxy)-7-fluoro-1-((6-oxo-5-azaspiro[2.4]heptan-5-yl)methyl)-1,2,3,4-tetrahydroisoquinoline-2-carbonyl)-1-methylcyclohexane-1-carboxylic acid] | 0.5 nM |
